Results reported in patent US20120165319A1, “INHIBITORS OF INTERLEUKIN-1 BETA CONVERTING ENZYME” (VERTEX PHARMACEUTICALS INCORPORATED, priority 1995, published 2012).
“Also recorded” adds a separate entry of the source.

Tests used:
[1] = tested on: male DBA/1J mice, type II collagen-induced arthritis; assay: Type II collagen-induced arthritis; type: in vivo, mouse; settings: oral gavage twice a day 10, 25 and 50 mg/kg (214e: 50 mg/kg once a day), Arthritis Severity Score, result in words
Experimental: Type II Collagen-Induced Arthritis
Type II collagen-induced arthritis was established in male DBA/1J mice at described Wooley and Geiger (Wooley, P. H., Methods in Enzymology, 162, pp. 361-373 (1988) and Geiger, T., Clinical and Experimental Rheumatology, 11, pp. 515-522 (1993)). Chick sternum Type II collagen ([…] in 10 mM acetic acid) was emulsified with an equal volume of Freund's complete adjuvant (FCA) by repeated passages (400) between two 10 ml glass syringes with a gauge 16 double-hub needle. Mice were immunized by intradermal injection (50 μl; […], CII per mouse) of collagen emulsion 21 days later at the contra-lateral side of the tail base. Drugs were administered twice a day (10, 25 and 50 mg/kg) by oral gavage approximately 7 h apart. Vehicles used included ethanol/PEG/water, β-cyclodextrin, labrosol/water or cremophor/water. Drug treatments were initiated within 2 h of the CII booster immunization. Inflammation was scored on a 1 to 4 scale of increasing severity on the two front paws and the scores are added to give the final score.

[2] = In vivo bioavailability determination (oral, rat); settings: for blood levels of drug when dosed orally: oral 10-100 mg/kg; for blood levels of drug when dosed orally / drug availability when dosed orally: result in words; for Drug Availability / Cmax / drug availability when dosed orally: oral; for Cmax: aldehyde (drug) concentration
Experimental: In Vivo Bioavailability Determination
The drugs (10-100 mg/kg) were dosed orally to rats (10 mL/kg) in ethanol/PEG/water, β-cyclodextrin, labrosol/water or cremophor/water. Blood samples were drawn from the carotid artery at 0.25, 0.50, 1, 1.5, 2, 3, 4, 6, and 8 hours after dosing, centrifuged to plasma and stored at −70° C. until analysis. Aldehyde concentrations were determined using an enzymatic assay. Pharmacokinetic analysis of data was performed by non-linear regression using RStrip (MicroMath Software, UT).

[3] = tested on: IL-1β production, LPS-challenged mice; assay: In vivo acute assay for efficacy as anti-inflammatory agent: LPS-induced IL-1β production in mice; design: species or system mouse; settings: for inhibition of IL-1β production after oral administration, dosed at time of LPS challenge: LPS-challenged mice, vehicles ethanol/PEG/water, β-cyclodextrin, labrosol/water or cremophor/water, result in words; for Inhibition (%) of IL-1β production in LPS-challenged mice: oral, dosed at time of LPS challenge
Procedure, shortened: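 CD1 mice (n=6) were challenged with LPS 20 mg/kg IP and given compound IP in olive oil:DMSO:ethanol (90:5:5) 1 h after LPS, or at the time of challenge for some analogs. Blood was taken 7 h after LPS and serum IL-1β was measured by ELISA. Oral gavage at 50 mg/kg was also tested.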

TX = target: T1, TX (Homo sapiens, UniProt P49662); assay: Inhibition of ICE homologs: TX; type: biochemical; settings: second-order rate constant for inactivation, irreversible inhibitors (Table 2)
T1 construct: made in house; host or cells: Spodoptera frugiperda (Sf9) insect cells, recombinant baculovirus (pVL1393/TX)
T1 sequence (P49662 81-270 limits assumed): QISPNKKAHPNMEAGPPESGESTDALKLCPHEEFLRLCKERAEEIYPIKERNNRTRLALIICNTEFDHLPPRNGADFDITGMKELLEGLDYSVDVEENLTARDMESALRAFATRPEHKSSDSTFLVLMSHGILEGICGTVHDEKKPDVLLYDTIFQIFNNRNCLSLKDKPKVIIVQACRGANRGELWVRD
T1 sequence (P49662 290-377 limits assumed): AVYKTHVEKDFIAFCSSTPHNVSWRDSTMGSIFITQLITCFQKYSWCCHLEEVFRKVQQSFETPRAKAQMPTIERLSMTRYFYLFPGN
From the text: Expression of TX in insect cells using a baculovirus expression system. We have subcloned Tx cDNA (Faucheu et al., supra 1995) into a modified pVL1393 transfer vector, co-transfected the resultant plasmid (pVL1393/TX) into insect cells with viral DNA and identified the recombinant baculovirus. After the generation of high titer recombinant virus stock, the medium was examined for TX activity using the visible ICE assay. […] ICE was used as a standard in the assay.
(§1) The selectivity of a panel of reversible inhibitors for ICE homologs is depicted in Table 1. ICE enzyme assays were performed according to Wilson et al (supra 1994) using a YVAD-AMC substrate (Thornberry et al, supra 1992). Assay of TX activity was performed using the ICE substrate under identical conditions to ICE. Assay of CPP32 was performed using a DEVD-AMC substrate (Nicholson et al., supra 1995). In general, there is low selectivity between ICE and TX for a wide range of scaffolds. None of the synthetic ICE compounds tested are effective inhibitors of CPP32.
(§2) Second-order rate constants for inactivation of ICE and ICE homologs with selected irreversible inhibitors are presented below (Table 2). The irreversible compounds studied are broad spectrum inhibitors of ICE and its homologs. Some selectivity, however, is observed with the irreversible compounds comparing inhibition of ICE and CPP32.

ICE = target: T2, ICE (Homo sapiens, UniProt P29466); assay: Enzyme assay with fluorescent substrate (Acetyl-Tyr-Val-Ala-Asp-AMC); Ki and second order rate constants kinact; type: biochemical
T2 sequence (P29466 120-297 limits assumed): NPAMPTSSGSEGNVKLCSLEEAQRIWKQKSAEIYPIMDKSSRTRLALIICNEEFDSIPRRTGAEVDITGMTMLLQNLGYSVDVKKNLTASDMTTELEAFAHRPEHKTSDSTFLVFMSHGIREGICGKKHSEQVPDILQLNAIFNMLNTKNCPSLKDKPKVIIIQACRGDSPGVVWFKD
T2 sequence (P29466 317-404 limits assumed): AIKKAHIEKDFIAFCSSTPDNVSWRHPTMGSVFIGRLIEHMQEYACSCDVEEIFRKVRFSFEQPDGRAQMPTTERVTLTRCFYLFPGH
Experimental: 2. Enzyme Assay with Fluorescent Substrate
This assay is run essentially according to Thornberry et al. (Nature 356: 768-774 (1992)), using substrate 17 referenced in that article. The substrate is: Acetyl-Tyr-Val-Ala-Asp-amino-4-methylcoumarin (AMC). The following components are mixed:
The assay is run in a 96 well microtiter plate. Buffer and ICE are added to the wells. The components are left to incubate at 37° C. for 15 minutes in a temperature-controlled wellplate. After the 15 minute incubation, the reaction is started by adding substrate directly to the wells and the reaction is monitored @37° C. for 30 minutes by following the release of the AMC fluorophore using an excitation wavelength for 380 nm and an emission wavelength of 460 nm. A linear fit of the data for each well is performed and a rate is determined in fluorescence units per second.
For determination of enzyme inhibition constants (Ki) or the mode of inhibition (competitive, uncompetitive or noncompetitive), the rate data determined in the enzyme assays at varying inhibitor concentrations are computer-fit to standard enzyme kinetic equations (see I. H. Segel, Enzyme Kinetics, Wiley-Interscience, 1975).
The determination of second order rate constants for irreversible inhibitors was performed by fitting the fluorescence vs time data to the progress equations of Morrison. Morrison, J. F., Mol. Cell. Biophys., 2, pp. 347-368 (1985). Thornberry et al. have published a description of these methods for measurement of rate constants of irreversible inhibitors of ICE. Thornberry, N. A., et al. Biochemistry, 33, pp. 3923-3940 (1994). For compounds where no prior complex formation can be observed kinetically, the second order rate constants (kinact) are derived directly from the slope of the linear plots of kobs vs. [I]. For compounds where prior complex formation to the enzyme can be detected, the hyperbolic plots of kobs vs. [I] are fit to the equation for saturation kinetics to first generate Ki and k′. The second order rate constant kinact is then given by k′/Ki.
as §1, §2

U937 cells = assay: Fas-induced apoptosis in U937 cells; settings: Homo sapiens, U-937, read-out: Inhibition of apoptosis
Experimental: Fas-Induced Apoptosis in U937 cells. Compounds were evaluated for their ability to block anti-Fas-induced apopotosis. […] We used this cell line for apoptosis studies. U937 cells were seeded in culture at 1×10^5 cells/ml and grown to ˜5×10^6 cells/ml. For apoptosis experiments, 2×10^6 cells were plated in 24-well tissue culture plates in 1 ml RPMI-1640-10% FBS and stimulated with 100 ng/ml anti-Fas antigen antibody (Medical and Biological Laboratories, Ltd.). After a 24 hr incubation at 37° C., the percentage of apoptotic cells was determined by FACS analysis using ApoTag reagents.

[4] = tested on: IL-1β levels in the peritoneal fluid, carrageenan-challenged mice; assay: Mouse carrageenan peritoneal inflammation; type: in vivo; settings: for Inhibition (%) of IL-1β production in carrageenan-challenged mice: oral
Experimental: Mouse Carrageenan Peritoneal Inflammation
Inflammation was induced in mice with an intraperitoneal (IP) injection of 10 mg carrageenan in 0.5 ml of saline (Griswold et al., Inflammation, 13, pp. 727-739 (1989)). Drugs are administered by oral gavage in ethanol/PEG/water, β-cyclodextrin, labrosol/water or cremophor/water vehicle. The mice are sacrificed at 4 hours post carrageenan administration, then injected IP with 2 ml of saline containing 5 U/ml heparin. After gentle massage of the peritoneum, a small incision is made, the contents collected and volume recorded. Samples are kept on ice until centrifuged (130×g, 8 mins at 4° C.) to remove cellular material, and the resultant supernatant stored at −20° C. IL-1β levels in the peritoneal fluid are determined by ELISA.

Row | Compound | inhibition of inflammation / progression of type II collagen-induced arthritis [1] | blood levels of drug when dosed orally [2] | drug availability when dosed orally [2] | inhibition of IL-1β production after oral administration, dosed at time of LPS challenge [3] | Inhibition (%) of IL-1β production in LPS-challenged mice ([3]; 10 mg/kg dose) [%] | Inhibition (%) of IL-1β production in LPS-challenged mice ([3]; 25 mg/kg dose) [%] | Inhibition (%) of IL-1β production in LPS-challenged mice ([3]; 50 mg/kg dose) [%] | Drug Availability ([2]; dose 25 mg/kg) [%] | Cmax ([2]; dose 25 mg/kg) [ng/mL] | Inhibition (%) of IL-1β production in carrageenan-challenged mice ([4]; dose 1 mg/kg) [%] | Inhibition (%) of IL-1β production in carrageenan-challenged mice ([4]; dose 10 mg/kg) [%] | Inhibition (%) of IL-1β production in carrageenan-challenged mice ([4]; dose 25 mg/kg) [%] | Inhibition (%) of IL-1β production in carrageenan-challenged mice ([4]; dose 50 mg/kg) [%] | Inhibition (%) of IL-1β production in carrageenan-challenged mice ([4]; dose 100 mg/kg) [%] | further results
1 | O=C(CN1C(=O)[C@@H](NC(=O)c2nccc3ccccc23)CN(C(=O)CO)c2ccccc21)N[C@H]1CC(=O)OC1OCc1ccccc1 (mixture of isomers) [Compound 696a, (3S)-2-Oxo-3-(isoquinolin-1-oyl)amino-5-hydroxyacetyl-N-[(2RS,3S)-benzyloxy-5-oxo-tetrahydrofuran-3-yl]-2,3,4,5-tetrahydro-1H-1,5-benzodiazepine-1-acetamide] | inhibit inflammation; also recorded: blocks the progression | significant blood levels of drug | good drug availability | inhibit IL-1β production | 0 | 45 | 52 | – | – | – | – | – | – | – | Drug Availability ([2]; dose 50 mg/kg): 10%; Cmax ([2]; dose 50 mg/kg): 1200 ng/mL
2 | O=C(O)C[C@H](NC(=O)CN1C(=O)[C@@H](NC(=O)CCc2ccccc2)CN(C(=O)CCc2ccccc2)c2ccccc21)C(=O)COC(=O)c1c(Cl)cccc1Cl [Compound 108a, 2,6-Dichlorobenzoic acid 4-carboxy-2-oxo-3(S)-{2-[2-oxo-5-(3-phenylpropionyl)-3(S)-(3-phenylpropionylamino)-2,3,4,5-tetrahydrobenzo[b][1,4]diazepin-1-yl]acetylamino}butyl ester] | – | – | – | – | – | – | – | – | – | – | – | – | – | – | kinact (TX) (TX): 25,000 M^−1 s^−1; Fluorescent Assay kinact (ICE; Table 6): 1 × 10^5 m^−1 s^−1; kinact (ICE) (ICE; second-order rate constant for inactivation, irreversible inhibitors (Table 2)): 100,000 M^−1 s^−1; inhibition at 20 µM (U937 cells): > 75%
3 | O=C1C[C@H](NC(=O)[C@@H]2CCCN3C(=O)CC[C@H](NC(=O)c4nccc5ccccc45)C(=O)N23)[C@H](OC2CCCC2)O1 [Compound 412d, [1S,9S(2R,3S)]N-(2-Cyclopentoxy-5-oxotetrahydrofuran-3-yl)-6,10-dioxo-9-(isoquinolin-1-oylamino)-1,2,3,4,7,8,9,10-octahydro-6-H-pyridazino[1,2-a][1,2]diazepine-1-carboxamide] | inhibit inflammation; also recorded: blocks the progression | significant blood levels of drug | good drug availability | inhibit IL-1β production | – | – | – | 35 | 2600 | 0 | 32 | 31 | 36 | 53 | –
4 | CCO[C@@H]1OC(=O)C[C@@H]1NC(=O)[C@@H]1CCCN2C(=O)CC[C@H](NC(=O)c3nccc4ccccc34)C(=O)N12 [Compound 412f, [1S,9S(2R,3S)]N-(2-Ethoxy-5-oxotetrahydrofuran-3-yl)-6,10-dioxo-9-(isoquinolin-1-oylamino)-1,2,3,4,7,8,9,10-octahydro-6-H-pyridazino[1,2-a][1,2]diazepine-1-carboxamide] | inhibit inflammation; also recorded: blocks the progression | significant blood levels of drug | good drug availability | inhibit IL-1β production | 17 | 25 | 32 | 32 | 2400 | 30 | 54 | 49 | 73 | 75 | inhibition of IL-1β production in carrageenan-challenged mice ([4]; oral administration, 214e at 50 mg/kg, result in words): inhibits IL-1β production
